No end group written: not given here.
System: HL1 cells
Test: Caspase 3/7 activity in HL1 cells challenged with 1% hypoxia
Format: cell-based, mouse
Settings: 100 μM, 12 hours
Procedure: H9C2 is a myoblast cell line derived from rat myocardium obtained from ATCC® (CRL-1446, ATCC, Manassas, Va.) and cultured according to the recommended protocols. Briefly, cells were maintained at 37° C. with 5% CO2 in DMEM supplemented with 10% fetal bovine serum and antibiotics (100 U/ml penicillin, […] streptomycin) and split at a ratio of 1:4 using 0.05% trypsin every 36 hours. […]
Cells were rinsed in PMS and grown in DMEM (cat. #11966-025, Gibco) for 2 hours prior to initiating hypoxia (simulated ischemia). […] Three different time points were adopted for each of the three cell lines according to the severity of cell death under hypoxia determined by LDH release: for H9C2 cell line: 8 hr; 16 hr; 24 hr; for HL-1 cell line: 4 hr; 8 hr; 12 hr; for cardiac fibroblast cell line: 16 hr; 32 hr; 48 hr.
Cell death was first determined using an LDH release assay (cat. #630117, Clontech), according to the manufacturer's instructions. […] Caspase 3/7 activity was next determined using a commercial Caspase 3/7 activity kit (Cat. #G8091, Promega, Madison, Wis. 53711) in a 384 well plate (Cat. #781903, Greiner bio-one) according to the manufacturer's instructions. […] The resulting cell lysates (25 μl, with 0.6 ug total protein) and Caspase-Glo 3/7 Reagent were added to each well in a 1:1 ratio and the luminescence was read (CLARIOstar, BMG LABTECH GmbH). […]

For YARAAARQARAKALARQLGVAA [MMI-0100], the “caspase 3/7 activity” value was “inhibited”.
